Assay results taken from BindingDB's records for doi:10.1021/jm900472s (Burnham Institute For Medical Research, 2009).

Target: Apoptosis regulator Bcl-2 (Homo sapiens, UniProt P10415)
Test: Fluorescence Polarization Assay
Settings: pH 7.4; 23 °C
Method: FPAs were performed using various concentrations of GST-Bcl-2 family proteins, incubated with FITC-conjugated peptide substrates in the presence of inhibitor compound. […] IC50 was determined by fitting the experimental data to a sigmoidal dose-response nonlinear regression model (SigmaPlot 10.0.1, Systat Software, Inc., San Jose, CA). Data reported are the mean of three independent experiments.

Chain of Apoptosis regulator Bcl-2 (P10415 whole entry): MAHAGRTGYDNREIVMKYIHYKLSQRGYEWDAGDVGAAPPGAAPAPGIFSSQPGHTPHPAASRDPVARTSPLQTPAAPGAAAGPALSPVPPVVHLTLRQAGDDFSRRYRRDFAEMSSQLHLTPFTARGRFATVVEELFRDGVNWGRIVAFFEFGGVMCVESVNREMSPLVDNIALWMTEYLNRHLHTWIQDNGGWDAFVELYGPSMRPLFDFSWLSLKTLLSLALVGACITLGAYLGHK

In the case of Cc1cc2c(C(C)C)c(O)c(O)cc2c(O)c1-c1c(C)cc2c(C(C)C)c(O)c(O)cc2c1O [Apogossypol], the IC50 is reported as 4.3 µM.
